According to patent US20200109117A1, “Modified Therapeutic Agent Analogs of Mefenamic Acid” (ACCESS Association, priority 2018, published 2020):
Read-outs that look alike come from different tables or passages of the source.

How the values were obtained:
[1] = system: pilocarpine-induced seizure rats; assay: EEG of seizure episodes in rat seizure model; format: in vivo; conditions: preliminary data
[2] = system: pilocarpine-induced seizure rats; assay: BBB permeability by contrast-enhanced MRI (Gd-DTPA) in rat seizure pre-clinical model; format: in vivo
Procedure: Structure (I), MFA-NIC, was assessed as a possible therapeutic in a rat seizure pre-clinical model. Assessments were conducted using Contrast-enhanced (CE) magnetic resonance (MR) imaging (MRI) and MR spectroscopy (MRS). The seizure model initially involved injection of pilocarpine (380 mg/kg i.p.) alone (Ikonomidou-Turski et al., 1988), however all rats undergoing this procedure died before MRS data could be obtained. A more recent model by Jeong et al. (2017) was adopted, where a lower dose of pilocarpine (25 mg/kg i.p.) was preceded by lithium chloride (127 mg/kg i.p.) 19 hours before, and scopolamine (2 mg/kg i.p.) 30 min. before, pilocarpine. Injection of pilocarpine induced status epilepticus about 20-30 min post-pilocarpine (Jeong et al., 2017). Pascente et al. (2016) also used lithium chloride 18 hours before pilocarpine. Scopolamine was also used by Behr et al. (2017) 30 m in before pilocarpine. Electroencephalography (EEG) was used in the Behr et al. study to confirm seizures.
A MRI contrast agent, Gd-DTPA (gadolinium diethylene triamine penta acetic acid) was used to establish if there was increased BBB permeability. […] Three brain regions were assessed: hippocampus, thalamus and cerebral cortex. […] This may be due to the variability in the change in MRI signal intensity in the seizure group, and the low number of rats per group. The smaller variability in the saline-treated controls was due to the large […] of n=25 (obtained from a previous study conducted in the Towner group). […] The saline-treated controls were used for all statistical comparisons.

[3] = system: pilocarpine-induced seizure rats; assay: Brain metabolite levels by MR spectroscopy (ratios to Cho) in rat seizure pre-clinical model; format: in vivo
Procedure: Assessments were conducted using Contrast-enhanced (CE) magnetic resonance (MR) imaging (MRI) and MR spectroscopy (MRS). […] A more recent model by Jeong et al. (2017) was adopted, where a lower dose of pilocarpine (25 mg/kg i.p.) was preceded by lithium chloride (127 mg/kg i.p.) 19 hours before, and scopolamine (2 mg/kg i.p.) 30 min. before, pilocarpine. Injection of pilocarpine induced status epilepticus about 20-30 min post-pilocarpine (Jeong et al., 2017).
MRS was used to assess levels of brain metabolites, including N-acetyl aspartate (NAA), total creatine (Cr, total choline (Cho), taurine (Tau), glutamate (Glu) and myo-inositol (Myo-Ins). Cho was used as a normalization reference for all other metabolites. For the control group a total of 10 rats were assessed. For all other treatment groups n=5.

[4] = Solubility in distilled water and normal saline, visual inspection and HPLC; format: physicochemical; conditions: for Aqueous solubility checked on HPLC: aqueous solution, analogs compared with MFA; for Aqueous solubility on visual inspection: analogs compared with parent MFA
Text: The solubility of each molecular structure was checked in distilled water as well as in normal saline.

[5] = Stability study of MFA analogs in acetonitrile and distilled water, 1 day and 7 days, visual and HPLC; format: physicochemical; conditions: for Stability in acetonitrile and in distilled water up to 7 days: 4° C. and room temperature (~25° C.); for Stability 1 Day ACN 4° C. / Stability 7 Day ACN 4° C. / Stability 1 Day ACN RT / Stability 7 Day ACN RT: acetonitrile; for Stability 7 Day ACN 4° C. / Stability 7 Day ACN RT / Stability 7 Day DW 4° C. / Stability 7 Day DW RT: 7 days; for Stability 1 Day ACN RT / Stability 7 Day ACN RT / Stability 1 Day DW RT / Stability 7 Day DW RT: room temperature (~25° C.); for Stability 1 Day DW 4° C. / Stability 7 Day DW 4° C. / Stability 1 Day DW RT / Stability 7 Day DW RT: distilled water; for Stability in acetonitrile / Stability in distilled water after 1 day: after 1 day
Text: Therapeutic agents stable after 1 day were subjected to a 7 day stability study.
FIG. 1 provides the HPLC chromatogram of MFA-NIC showing stability of the modified drug kept at room temperature on day seven. FIG. 2 provides the HPLC chromatogram of MFA-MeNIC showing stability of the modified drug kept at room temperature on day seven.

[6] = pH 7.1; cited from earlier work
[7] = 200 mg/kg dose, found most effective
[8] = cerebral cortex, 50 mg/kg via gavage
[9] = cerebral cortex, 200 mg/kg via gavage
[10] = central brain region (primarily hippocampus), 10 mg/kg via gavage
[11] = distilled water, water, solvent DW (distilled water), read-out: Solubility after molecular weight correction factor
[12] = distilled water, water, solvent DW (distilled water), read-out: Solubility in NS and DW
[13] = normal saline, saline or isotonic, solvent NS (normal saline), read-out: Solubility after molecular weight correction factor
[14] = normal saline, saline or isotonic, solvent NS (normal saline), read-out: Solubility in NS and DW

Row | SMILES | Stability in acetonitrile [5] | BBB permeability vs saline-treated controls [2, 8] | BBB permeability vs saline-treated controls [2, 9] | Aqueous solubility checked on HPLC [4] | solubility [4, 11] [mg/mL] | solubility [4, 12] [mg/mL] | solubility [4, 13] [mg/mL] | solubility [4, 14] [mg/mL] | Area (HPLC) ([4]; solvent DW (distilled water)) | Area (HPLC) ([4]; solvent NS (normal saline)) | Aqueous solubility on visual inspection ([4]; water) | Stability in acetonitrile and in distilled water up to 7 days [5] | Stability 1 Day ACN 4° C. [5] | Stability 7 Day ACN 4° C. [5] | Stability 1 Day ACN RT [5] | Stability 7 Day ACN RT [5] | Stability 1 Day DW 4° C. [5] | Stability 7 Day DW 4° C. [5] | Stability 1 Day DW RT [5] | Stability 7 Day DW RT [5] | other results
1 | Cc1cccc(Nc2ccccc2C(=O)OC[n+]2cccc(C(N)=O)c2)c1C [MFA-NIC, MFA-Nicotinamide] |  | significant increase | not significantly different | much higher | 0.13 | 0.28 | 0.04 | 0.1 | 6867539 | 2350506 | significantly higher | stable | Stable | Stable | Stable | Stable | Stable | Stable | Stable | Stable | Level of seizure episodes (EEG) [1]: does reduce the level of seizure episodes; BBB permeability, overall effect [2, 7]: effective in preventing an increase in BBB permeability; BBB permeability vs saline-treated controls ([2]; cerebral cortex, 10 mg/kg via gavage): not significantly different; BBB permeability vs saline-treated controls ([2]; hippocampus, all doses (10, 50 or 200 mg/kg via gavage)): None of the MFA-NIC (shown in FIGS. 4-11 as pro-MFA or pMFA)-treated rats were found to be significantly different; BBB permeability vs saline-treated controls ([2]; thalamus, all doses (10, 50 or 200 mg/kg via gavage)): None of the MFA-NIC (pro-MFA or pMFA)-treated rats were found to be significantly different; Brain metabolite levels, overall effect [3, 7]: effective in restoring brain metabolite levels back to normal; Myo-Ins/Cho ratio vs control (non-treated, non-seizure) group [3, 10]: significant decrease; NAA/Cho ratio vs control (non-treated, non-seizure) group [3, 10]: significant decrease
2 | Cc1cccc(Nc2ccccc2C(=O)OC[n+]2cccc(C(=O)N(C)C)c2)c1C [MFA-2MeNIC, MFA- N,N-Dimethylnicotinamide N-Methylnicotinamide] |  |  |  | much higher | 0.18 | 0.39 | 0.33 | 0.72 | 9876828 | 18274457 | significantly higher | stable | Stable | Stable | Stable | Stable | Stable | Stable | Stable | Stable | 
3 | CNC(=O)c1ccc[n+](COC(=O)c2ccccc2Nc2cccc(C)c2C)c1 [MFA-MeNIC, MFA- N-Methylnicotinamide] |  |  |  | much higher | 0.2 | 0.46 | 0.27 | 0.6 | 10643970 | 13844823 | significantly higher | stable | Stable | Stable | Stable | Stable | Stable | Stable | Stable | Stable | 
4 | Cc1cccc(Nc2ccccc2C(=O)O)c1C [MFA, N-(2,3-Dimethylphenyl)anthranilic acid, reference compound] |  | significant increase | significant increase | No peak |  |  |  |  | No Peak | No Peak | insoluble |  |  |  |  |  |  |  |  |  | Water solubility [6]: 0.004%; BBB permeability vs saline-treated controls ([2]; hippocampus, 50 mg/kg via gavage): significant increase; BBB permeability vs saline-treated controls ([2]; thalamus, 50 mg/kg via gavage): significant increase; BBB permeability vs saline-treated controls ([2]; thalamus, 200 mg/kg via gavage): significant increase

The next lines start with results.

Row | Stability in acetonitrile [5] | SMILES | BBB permeability vs saline-treated controls [2, 8] | BBB permeability vs saline-treated controls [2, 9] | Aqueous solubility checked on HPLC [4] | solubility [4, 11] [mg/mL] | solubility [4, 12] [mg/mL] | solubility [4, 13] [mg/mL] | solubility [4, 14] [mg/mL] | Area (HPLC) ([4]; solvent DW (distilled water)) | Area (HPLC) ([4]; solvent NS (normal saline)) | Aqueous solubility on visual inspection ([4]; water) | Stability in acetonitrile and in distilled water up to 7 days [5] | Stability 1 Day ACN 4° C. [5] | Stability 7 Day ACN 4° C. [5] | Stability 1 Day ACN RT [5] | Stability 7 Day ACN RT [5] | Stability 1 Day DW 4° C. [5] | Stability 7 Day DW 4° C. [5] | Stability 1 Day DW RT [5] | Stability 7 Day DW RT [5] | other results
5 | not found to be stable | Cc1cccc(Nc2ccccc2C(=O)OCOC(=O)c2ccc[n+](COC(=O)NC(C)C)c2)c1C [MFA-PCA, MFA-Pyridinium, 3-carboxy-1-[N-(1-methylethyl)carbamic acid]] |  |  |  |  |  |  |  |  |  |  |  |  |  |  |  |  |  |  |  | Stability in distilled water after 1 day [5]: not found to be stable
6 | stable | Cc1cccc(Nc2ccccc2C(=O)OCOC(=O)c2ccc[n+](C)c2)c1C [MFA-MeNICA, MFA-N-methylnicotinic acid] |  |  |  |  |  |  |  |  |  |  |  | Stable |  | Stable |  |  |  |  |  | Stability in distilled water after 1 day [5]: unstable
